Test results reported in PMC3933419, “Synthesis and Properties of a Selective Inhibitor of Homeodomain–Interacting Protein Kinase 2 (HIPK2)” (PLoS ONE, 2014).
Where two headings read alike, the source gives them in different places.

What was measured:
[1] = target: T1, HIPK2 (Homo sapiens, UniProt Q9H2X6); assay: HIPK2 kinase inhibition assay (33P-ATP, peptide […]); assay type: biochemical
T1 construct: The source of HIPK2 and of all of the other protein kinases used for specificity assays is as described elsewhere
T1 sequence (Q9H2X6 whole entry): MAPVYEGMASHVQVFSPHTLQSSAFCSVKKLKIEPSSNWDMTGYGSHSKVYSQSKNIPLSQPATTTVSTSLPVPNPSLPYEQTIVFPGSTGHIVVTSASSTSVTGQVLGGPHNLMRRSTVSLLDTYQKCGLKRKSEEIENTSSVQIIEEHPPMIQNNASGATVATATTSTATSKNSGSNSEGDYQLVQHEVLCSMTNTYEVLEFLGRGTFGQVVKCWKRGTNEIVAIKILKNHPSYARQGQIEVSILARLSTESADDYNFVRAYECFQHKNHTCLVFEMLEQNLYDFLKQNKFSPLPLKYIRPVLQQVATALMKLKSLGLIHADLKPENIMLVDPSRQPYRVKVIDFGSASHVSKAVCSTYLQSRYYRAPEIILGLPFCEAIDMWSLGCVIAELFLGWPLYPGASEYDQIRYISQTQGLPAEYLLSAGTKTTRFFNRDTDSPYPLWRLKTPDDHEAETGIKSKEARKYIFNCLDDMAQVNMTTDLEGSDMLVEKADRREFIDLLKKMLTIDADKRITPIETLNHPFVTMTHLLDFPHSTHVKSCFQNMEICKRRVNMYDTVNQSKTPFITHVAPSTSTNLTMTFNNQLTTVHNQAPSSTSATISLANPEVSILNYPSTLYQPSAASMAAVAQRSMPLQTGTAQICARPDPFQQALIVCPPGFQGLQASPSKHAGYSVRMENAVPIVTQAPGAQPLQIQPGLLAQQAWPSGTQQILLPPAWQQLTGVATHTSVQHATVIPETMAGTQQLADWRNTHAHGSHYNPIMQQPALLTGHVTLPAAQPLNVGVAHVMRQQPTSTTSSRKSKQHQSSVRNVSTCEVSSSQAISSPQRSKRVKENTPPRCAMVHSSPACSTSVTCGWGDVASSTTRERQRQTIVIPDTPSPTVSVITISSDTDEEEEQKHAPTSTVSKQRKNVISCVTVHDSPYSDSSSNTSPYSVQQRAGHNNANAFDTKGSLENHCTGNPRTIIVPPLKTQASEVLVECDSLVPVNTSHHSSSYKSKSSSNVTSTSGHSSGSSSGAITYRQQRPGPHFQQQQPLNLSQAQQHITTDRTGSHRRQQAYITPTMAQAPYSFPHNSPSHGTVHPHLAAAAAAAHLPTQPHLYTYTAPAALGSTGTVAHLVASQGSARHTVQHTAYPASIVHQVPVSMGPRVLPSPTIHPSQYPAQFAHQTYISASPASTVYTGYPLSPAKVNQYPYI
Method: The source of HIPK2 and of all of the other protein kinases used for specificity assays is as described elsewhere. […] The reaction was stopped by addition of 5 μl of 0.5 M orthophosphoric acid before spotting aliquots onto phosphocellulose filters. Filters were washed in 75 mM phosphoric acid (5-10 ml/each) four times and then once in methanol and dried before counting.

[2] = target: T2, CK2 (Rattus norvegicus, UniProt P19139); assay: CK2 phosphorylation assay; assay type: biochemical; details: 20 µM ATP
T2 construct: Native CK2 and CK1 were purified from rat liver; from tissue; host or cells: rat liver
T2 sequence (P19139 whole entry): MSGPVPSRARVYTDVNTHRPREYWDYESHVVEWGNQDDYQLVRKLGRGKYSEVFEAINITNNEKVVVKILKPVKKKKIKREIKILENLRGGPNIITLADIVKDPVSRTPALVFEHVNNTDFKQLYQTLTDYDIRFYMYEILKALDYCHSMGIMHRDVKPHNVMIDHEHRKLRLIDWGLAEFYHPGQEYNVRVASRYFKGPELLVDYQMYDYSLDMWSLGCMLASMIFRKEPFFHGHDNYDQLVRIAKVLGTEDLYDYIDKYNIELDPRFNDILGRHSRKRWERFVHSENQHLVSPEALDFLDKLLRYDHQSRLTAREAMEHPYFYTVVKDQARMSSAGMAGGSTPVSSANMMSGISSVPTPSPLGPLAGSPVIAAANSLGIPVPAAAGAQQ
T2 sequence (P67874 whole entry partner): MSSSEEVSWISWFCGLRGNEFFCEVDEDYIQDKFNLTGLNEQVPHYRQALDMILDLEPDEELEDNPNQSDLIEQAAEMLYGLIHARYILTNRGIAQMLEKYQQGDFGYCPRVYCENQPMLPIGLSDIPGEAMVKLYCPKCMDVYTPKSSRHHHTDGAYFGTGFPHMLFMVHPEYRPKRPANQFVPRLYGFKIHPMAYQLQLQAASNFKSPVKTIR
Method: (§1) Native CK2 and CK1 were purified from rat liver.
(§2) PIM1, CK2, CK1 phosphorylation assays were performed following similar procedures used for HIPK2 except that preincubation was omitted. In detail, PIM1 activity was determined at 100 µM ATP concentration and in the presence of 30 µM synthetic peptide substrate […]. CK2 and CK1 activities were assayed in a buffer containing 50 mM Tris/HCl (pH 7.5), 100 mM NaCl, 12 mM MgCl2, 100 µM specific peptide substrate […] (for CK2), or 200 µM […] (for CK1) and 20 µM [γ-^33P]ATP (500–1000 c.p.m./pmol).

[3] = target: T3, PIM1 (Homo sapiens, UniProt P11309); assay: PIM1 phosphorylation assay; assay type: biochemical; details: 100 µM ATP
T3 construct: The source of HIPK2 and of all of the other protein kinases used for specificity assays is as described elsewhere
T3 sequence (P11309 whole entry, species assumed): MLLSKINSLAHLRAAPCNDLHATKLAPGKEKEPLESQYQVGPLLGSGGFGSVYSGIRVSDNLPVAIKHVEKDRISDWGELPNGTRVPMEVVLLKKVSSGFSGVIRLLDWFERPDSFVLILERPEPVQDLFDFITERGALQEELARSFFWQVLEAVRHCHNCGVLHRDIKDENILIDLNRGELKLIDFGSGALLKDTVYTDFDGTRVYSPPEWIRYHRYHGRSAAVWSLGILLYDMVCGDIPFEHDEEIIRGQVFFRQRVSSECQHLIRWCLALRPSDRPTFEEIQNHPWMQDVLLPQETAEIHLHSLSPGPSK
Method: as §2

[4] = test system: CK1; assay: CK1 phosphorylation assay; assay type: biochemical, rat; details: 20 µM ATP
Method: as §1, §2

[5] = test system: 70 PKs; assay: Selectivity parameters (Lorenz curve, Gini coefficient, hit rate) of TBI; assay type: biochemical; details: 10 µM, from data published in ref [19]
Method: Lorenz curves were derived from the selectivity data. Gini coefficients and hit rates (expressing the percent of kinases inhibited >50% by a given compound) were calculated as described in [25].

[6] = target: T1, HIPK2; design: method as in PMID 18588507; details: TBB and TBI values; ref [19]; cited from earlier work
[7] = target: T2, CK2; design: method as in PMID 18588507; details: read-out: IC50 for CK2; TBB and TBI values; ref [19]; cited from earlier work
[8] = target: T3, PIM1; design: method as in PMID 18588507; details: TBB and TBI values; ref [19]; cited from earlier work
[9] = test system: CK1; design: method as in PMID 18588507; details: TBB and TBI values; ref [19]; cited from earlier work
[10] = test system: 70 PKs; design: method as in PMID 21513497; details: 10 µM TBI; ref [20]; cited from earlier work
[11] = target: T1, HIPK2; design: method as in PMID 17850214; details: 1 µM concentration; panel of 71 protein kinases; ref [9]; cited from earlier work
[12] = test system: panel of 71 protein kinases; details: 1 µM concentration, ref [9]; cited from earlier work
[13] = target: T4, endogenous HIPK2 (Homo sapiens, UniProt Q9H2X6); assay: Activity of HIPK2 immunoprecipitated from treated HepG2 cells; assay type: cell-based; details: HepG2 cells, increasing concentrations; immunoprecipitated HIPK2
T4 construct: endogenous in cells; host or cells: HepG2
T4 sequence (Q9H2X6 whole entry): as the sequence (Q9H2X6 whole entry) above
Method: HepG2 cells (human hepatocellular carcinoma) were cultured in Dulbecco's modified Eagle's medium (DMEM; Sigma) supplemented with 10% fetal calf serum, 2 mM L-glutamine, 100 unit/ml penicillin and 100 µg/ml streptomycin; CEM cells (human T lymphoblastoid cells) were cultured n RPMI-1640 (Sigma) with the same supplements. Cells were cultured in an atmosphere containing 5% CO2, at 37°C. Treatments with TBID were performed in the same medium but with 1% fetal calf serum; control cells were treated with the solvent (DMSO). Total cell lysates were prepared as in [29].
Alternatively, HIPK2 was immunoprecipitated with 2.5 µl anti-HIPK2 (Epitomics) from 350 µg of total lysate proteins deriving from HepG2 cells either treated or not with TBID following a protocol elsewhere described. An aspecific antibody was used as negative control. Immunoprecipitated HIPK2 activity was measured towards the specific peptide substrate ([…]) at 1.6 mM concentration, for 10 min at 30°C, under the same conditions described above for the in vitro kinase assay. Peptide radioactivity was measured after sample spotting on phospho-cellulose paper, washing and scintillation counting, as in [30], while the amount of HIPK2 immunoprecipitated was evaluated by WB.

Compound	IC50 ([1]; 20 µM ATP, in vitro) [µM]	IC50 [2] [µM]	IC50 [3] [µM]	IC50 [4] [µM]	melting point	other results
Cc1cc(N2C(=O)c3c(Br)c(Br)c(Br)c(Br)c3C2=O)[nH]n1 [5f, 4,5,6,7-Tetrabromo-2-(3-methyl-1H-pyrazol-5-yl)isoindoline-1,3-dione]	> 40	> 40	> 40	> 40	331 to 332 °C	–
O=C1c2c(Br)c(Br)c(Br)c(Br)c2C(=O)N1c1ccon1 [5h, 4,5,6,7-Tetrabromo-2-(isoxazol-3-yl)isoindoline-1,3-dione]	23.6	> 40	> 40	> 40	290 to 293 °C	–
O=C1c2c(Br)c(Br)c(Br)c(Br)c2C(=O)N1c1nccs1 [5b, 4,5,6,7-Tetrabromo-2-(thiazol-2-yl)isoindoline-1,3-dione]	0.72	16	40	9.3	228 to 232 °C	–
O=C1c2c(Br)c(Br)c(Br)c(Br)c2C(=O)N1c1nncs1 [5c, 4,5,6,7-Tetrabromo-2-(1,3,4-thiadiazol-2-yl)isoindoline-1,3-dione]	2.6	24	> 40	> 40	310 to 311 °C	–
O=C1c2c(Br)c(Br)c(Br)c(Br)c2C(=O)N1c1ncns1 [5d, 4,5,6,7-Tetrabromo-2-(1,2,4-thiadiazol-5-yl)isoindoline-1,3-dione]	2.5	35	> 40	> 40	325 to 326 °C	–
O=C1c2c(Br)c(Br)c(Br)c(Br)c2C(=O)N1c1cnccn1 [5i, 4,5,6,7-Tetrabromo-2-(pyrazin-2-yl)isoindoline-1,3-dione]	3.62	> 40	> 40	> 40	272 to 275 °C	–
O=C1c2c(Br)c(Br)c(Br)c(Br)c2C(=O)N1c1ncn[nH]1 [5g, 4,5,6,7-Tetrabromo-2-(1H-1,2,4-triazol-5-yl)isoindoline-1,3-dione]	22.7	25	> 40	> 40	> 360 °C	–
Brc1c(Br)c(Br)c2[nH]cnc2c1Br [TBI]	–	–	–	–	–	IC50 ([1]; TBI value given in the text): 1 µM; Gini coefficient [5]: 0.310; IC50 [6]: 0.7 µM; IC50 [7]: 0.6 µM; IC50 [8]: 0.115 µM; IC50 [9]: 15 µM; number of kinases inhibited >90% [10]: 10
Brc1c(Br)c(Br)c2[nH]nnc2c1Br [TBB, 4,5,6,7-tetrabromobenzotriazole]	–	–	–	–	–	IC50 [6]: 5.3 µM; IC50 [8]: 1.04 µM; IC50 [9]: > 40 µM
C[S+]([O-])c1ccc(-c2nc(-c3ccncc3)c(-c3ccc(F)cc3)[nH]2)cc1 (stereo not drawn) [SB203580]	–	–	–	–	–	effect on HIPK2 activity ([1]; up to 40 µM concentration): not appreciably affecting; inhibition of HIPK2 [11]: 14%; number of protein kinases inhibited >60% [12]: 6
O=C1c2c(Br)c(Br)c(Br)c(Br)c2C(=O)N1c1ccn[nH]1 [5e, 4,5,6,7-Tetrabromo-2-(1H-pyrazol-5-yl)isoindoline-1,3-dione]	> 40	23	> 40	> 40	333 to 334 °C (dec.)	endogenous HIPK2 activity upon cell treatment [13]: not
